Molecules are shown by their SMILES. Several values for one entry are separate records, joined by “and”; a condition that tells them apart may be missing. Equal entries are not always repeated.

What all share (assay type): physicochemical
A short description of series [1]: Competition experiments of crystal form I and crystal form IV in solvents at room temperature. The note with it: 7 days, each tested solvent.
Series [2] in a line: Heating experiments (105° C., XRPD). The note with it: about 1 hour.
Series [3] in a line: Hygroscopicity under condition of high humidity.
Series [4] is described as follows: Influencing factor stability test, high temperature (60±2° C.).
Series [5] in a line: Influencing factor stability test, high humidity (25° C., RH92.5±5%).
Series [6] is described as follows: Dynamic Vapor Sorption (DVS). Here is the method: An Advantage 1.0 dynamic moisture adsorption instrument from SMS was used to detect, the temperature is 25° C., the relative humidity range is 0%-95%, humidity change step is relative humidity 5%, when the value of the mass change rate dm/dt is less than 0.002%, it is considered equilibrium of the balance, when the mass change rate is less than 0.01%/minute within 5 minutes, it is considered as standards of equilibrium in detection process, the maximum equilibrium time is 2 hours.

The nature of series [7]: Accelerated stability (40±2° C., RH 75±5%).
A short description of series [8]: Stability of crystal form I in solvent at room temperature (suspension equilibrium, XRPD).
Series [9] can be described thus: Influencing factor stability test, light (4500±500 Lux, 25° C.).
Series [10] can be described thus: Stability of crystal form I in solvent at high temperature (50° C., XRPD).

`CC(C)(Cc1cc2c(-c3ccc(C#N)cc3)cncc2s1)C(=O)O` [crystal form IV, 3-[4-(4-Cyanophenyl)thieno[2,3-c]pyridin-2-yl]-2,2-dimethylpropanoic acid]: in series [1], the “solid form after competition between crystal form I and crystal form IV (XRPD)” value is “transformed to the crystal form I”. Further, the “XRPD after heating compared to before heating” value in series [2] is given as “unchanged”.
Turning to `CC(C)(Cc1cc2c(-c3ccc(C#N)cc3)cncc2s1)C(=O)O` [crystal form III, 3-[4-(4-Cyanophenyl)thieno[2,3-c]pyridin-2-yl]-2,2-dimethylpropanoic acid], the “XRPD after heating compared to before heating” value in series [2] is reported as “transform to the crystal form I”.
`CC(C)(Cc1cc2c(-c3ccc(C#N)cc3)cncc2s1)C(=O)O` [amorphous form, 3-[4-(4-Cyanophenyl)thieno[2,3-c]pyridin-2-yl]-2,2-dimethylpropanoic acid]: the “hygroscopicity (in words)” value in [3] is “strong hygroscopicity”.
As to `CC(C)(Cc1cc2c(-c3ccc(C#N)cc3)cncc2s1)C(=O)O` [crystal form I, 3-[4-(4-Cyanophenyl)thieno[2,3-c]pyridin-2-yl]-2,2-dimethylpropanoic acid], the Assay in series [4] (0 day) is recorded as 99.1%; in series [4] (5 days), 101.1%; in series [4] (10 days) it was 100.0%; in [5] (0 day), 99.1%; in [5] (5 days), 100.1%; in series [5] (10 days), 100.6%. Besides, the Assay in series [7] (0 day) was determined as 99.1%; in series [7] (1 month) it was 99.2%; in series [7] (2 months), 98.6%; in series [7] (3 months) it was 98.5%; in series [7] (6 months), 99.7%; in series [9] (0 day), 99.1%. The Assay is 99.8% in [9] (5 days) and 100.3% in series [9] (10 days). Further, the Polymorph entry in [4] (0 day), in [4] (5 days), in series [4] (10 days), in series [5] (0 day), in series [5] (5 days) and in series [5] (10 days) was “Crystal form I” each time. Besides, the Polymorph result in series [9] (0 day), in series [9] (5 days) and in series [9] (10 days) was “Crystal form I” throughout. For the same compound, the Total impurities in series [4] (0 day) was found to be 0.05%; in series [4] (5 days), 0.07%; in series [4] (10 days) it was 0.07%; in series [5] (0 day), 0.05%; in series [5] (5 days), 0.07%; in series [5] (10 days) it was 0.07%. Further, the Total impurities in series [7] (0 day) amounted to 0.05%; in series [7] (1 month), 0.05%; in series [7] (2 months) it was 0.03%; in series [7] (3 months), 0.03%; in series [7] (6 months), 0.05%; in series [9] (0 day), 0.05%. Besides, the Total impurities in series [9] (5 days) is 0.07%; in series [9] (10 days), 0.12%. Besides, the Water content in series [4] (0 day) is given as 0.05%; in series [4] (5 days) it was 0.04%; in series [4] (10 days), 0.04%; in series [5] (0 day), 0.05%; in [5] (5 days), 0.06%; in [5] (10 days), 0.09%. Moreover, the Water content in [7] (0 day) is 0.04%; in series [7] (1 month), 0.06%; in [7] (2 months), 0.03%; in series [7] (3 months), 0.04%; in series [7] (6 months) it was 0.10%; in series [9] (0 day), 0.05%. For the same compound, the Water content was 0.04% in [9] (5 days) and 0.09% in series [9] (10 days). Also, in series [6], the “hygroscopicity (in words)” value is “non-hygroscopic”. The “mass increase compared with the initial mass (DVS)” value in series [6] (relative humidity from 0 to 95%, 25° C.) is 0.00944% and 0.01%. The “crystal form after suspension equilibrium (XRPD)” value in series [8] (7 days, single organic solvents (methanol, ethanol, isopropanol, acetone, ethyl acetate etc.)) was “unchanged”; in series [8] (14 days, water and methanol-, ethanol-, isopropanol-, acetone-water mixtures) it was “unchanged”. Also, the “XRPD after heating compared to before heating” value in series [2] is on record as “unchanged”. Also, the “crystal form after suspension equilibration (XRPD)” value is reported as “unchanged” in series [10] (30 days, methanol-water, ethanol-water, isopropanol-water, acetone-water 50:50) and “unchanged” in series [10] (43 days, methanol, ethanol, isopropanol, acetone or ethyl acetate).
In the case of `CC(C)(Cc1cc2c(-c3ccc(C#N)cc3)cncc2s1)C(=O)O` [crystal form VI, 3-[4-(4-Cyanophenyl)thieno[2,3-c]pyridin-2-yl]-2,2-dimethylpropanoic acid], the “XRPD after heating compared to before heating” value in [2] is recorded as “transform to the crystal form I”.

(Values after patent US20250059202A1, “CRYSTAL FORM OF FUSED RING DERIVATIVE, AND PREPARATION METHOD THEREFOR AND USE THEREOF” (SHANGHAI YINGLI PHARMACEUTICAL CO., LTD, priority 2022, published 2025).)
